Measurements from PubChem BioAssay AID1648 (Sanford-Burnham Center for Chemical Genomics, 2009).
The source made the active and inactive calls. How the calls were made is not given here.

Molecular target: Serine/threonine-protein kinase mTOR (Homo sapiens) (UniProt P42345)
Assay: binders of mTOR FRB domain, biophysical, NMR (AID 1648)
Conditions: NMR binding to FRB domain, chemical shift

Chain of Serine/threonine-protein kinase mTOR (Homo sapiens) (P42345 2015-2114): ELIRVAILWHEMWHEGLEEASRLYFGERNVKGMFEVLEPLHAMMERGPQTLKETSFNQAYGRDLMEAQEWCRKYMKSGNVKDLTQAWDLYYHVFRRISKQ

Compound | Kd
Cc1ccc(-c2c(C)n([O-])c3c([n+]2=O)CCCC3)o1 | > 4 mM (inactive)
CCOC(=O)C1=C(O)CCN(C)C1 | > 4 mM (inactive)
Cc1sc2nc(C)n(NC(N)=O)c(=O)c2c1C | > 4 mM (inactive)
Cc1nnc(-n2cnc3ccccc32)c2ccccc12 | > 4 mM (inactive)
NNc1ncnc2sccc12 | > 4 mM (inactive)
CC(=O)c1c(C)nc(-c2ccc(Cl)cc2Cl)n1O | > 4 mM (inactive)
NCc1ccc2occc2c1 | > 4 mM (inactive)
O=C(O)c1cccc(-n2cccc2)c1 | > 4 mM (inactive)
CC1CN=C(Nc2ccccc2)S1 (stereo not given) | > 4 mM (inactive)
CC(=O)NC(O)C(=O)c1ccccc1 (stereo not given) | > 4 mM (inactive)
CCn1c(-c2c[nH]c3ccccc23)n[nH]c1=S | > 4 mM (inactive)
CC(=O)Nc1nc(-c2cccs2)cs1 | > 4 mM (inactive)
O=C(NC1CCS(=O)(=O)C1)C1CCCCC1 (stereo not given) | > 4 mM (inactive)
O=C(O)c1onc2ccccc12 | > 4 mM (inactive)
O=c1cc(-c2ccc(O)cc2)oc2cc(O[C@@H]3O[C@H](CO)[C@@H](O)[C@H](O)[C@H]3O[C@@H]3OC[C@](O)(CO)[C@H]3O)cc(O)c12 | > 4 mM (inactive)
O=c1cnnc(N2CCCCC2)[nH]1 | > 4 mM (inactive)
c1ccc(NCc2nc(-c3ccccc3)no2)cc1 | > 4 mM (inactive)
CN(C)c1ccc(CNn2cnnc2)cc1 | > 4 mM (inactive)
Cn1c(SCC(N)=O)nc2ccccc2c1=O | > 4 mM (inactive)
CC(=O)NC(NC(C)=O)c1ccccc1 | > 4 mM (inactive)
CCOC(=O)CC1NCCNC1=O (stereo not given) | > 4 mM (inactive)
CC(=O)Nc1ccc(N2C(=O)C=CC2=O)cc1C | > 4 mM (inactive)
COCc1nc(-c2cc(Br)ccc2OC)no1 | > 4 mM (inactive)
CC(C)c1ccccc1NC(=O)c1cnccn1 | > 4 mM (inactive)
CCC1C(=O)OCC1Cc1cncn1C (stereo not given) | > 4 mM (inactive)

Compound | Kd
COc1ccc2cnn(-c3ccccc3)c(=O)c2c1OC | > 4 mM (inactive)
COc1cc(/C=C2\SC(=S)NC2=O)ccc1O | > 4 mM (inactive)
CS/C(N)=C\C(C)=O | > 4 mM (inactive)
CC(=O)Nc1sccc1C(=O)NC(N)=O | > 4 mM (inactive)
CC(=O)Nc1ccc(Oc2nc(C)cc(C)n2)cc1 | > 4 mM (inactive)
CCC(=O)Nc1cccc(NC(C)=O)c1 | > 4 mM (inactive)
O=c1c2c(nc3nc(COc4ccccc4)[nH]n13)CCC2 | > 4 mM (inactive)
Cc1nn2c(nc1=O)SCC2(O)c1ccccc1 (stereo not given) | > 4 mM (inactive)
Cc1cc(C)n(CC(=O)NC2CCCCC2)n1 | > 4 mM (inactive)
CCN1C(=O)c2c(C)nc3ccccc3c2C1=O | > 4 mM (inactive)
O=c1cnnc(Nc2ccc(O)cc2)[nH]1 | > 4 mM (inactive)
OCC(O)Cc1ccc2c(c1)OCO2 (stereo not given) | > 4 mM (inactive)
COc1cc2c(cc1OC)[C@@H]1C(=O)c3ccc4oc(C(C)C)cc4c3O[C@@H]1CO2 | > 4 mM (inactive)
CC(=O)Nc1ccc(NC(=O)N2CCOCC2)cc1 | > 4 mM (inactive)
O=C(Nc1nnc(-c2ccco2)o1)c1ccc([N+](=O)[O-])o1 | > 4 mM (inactive)
NC(=O)CSc1nnc2ccc3ccccc3n12 | > 4 mM (inactive)
O=C(CSc1ccnc(=O)[nH]1)NCc1ccccc1 | > 4 mM (inactive)
CC(CC(=O)NN)C1(O)CCCCC1 (stereo not given) | > 4 mM (inactive)
NC(=O)CSc1nnnn1-c1ccccc1 | > 4 mM (inactive)
N/N=C/c1cccnc1 | > 4 mM (inactive)
Cc1cc(C(=O)N2CCN(c3ccccn3)CC2)no1 | > 4 mM (inactive)
O=C(O)Cn1c(C(F)(F)F)nc2ccccc21 | > 4 mM (inactive)
CN(C)S(=O)(=O)NCc1ccc2c(c1)OCO2 | > 4 mM (inactive)
OCC1COc2ccccc2O1 (stereo not given) | > 4 mM (inactive)
COc1cccc(=O)c2c(C)n(C)c(C)c12 | > 4 mM (inactive)
